The structures appear in SMILES notation.

What all share (type): in vivo
In test [1] the test system is larva of the mustard beetle (Phaedon cochleariae). Put plainly: Phaedon test (PHAECO spray treatment). The note with it: Chinese cabbage leaf discs, after 7 days. The method, then: Phaedon Test ([…] Spray Treatment) Solvents: 78.0 parts by weight of acetone • • 1.5 parts by weight of dimethylformamide Emulsifier: 0.5 part by weight of alkylaryl polyglycol ether To produce a suitable preparation of active compound, one part by weight of active compound is mixed with the stated amounts of solvents and emulsifier, and the concentrate is diluted with emulsifier-containing water to the desired concentration. Discs of Chinese cabbage (Brassica pekinensis) are sprayed with an active compound preparation of the desired concentration and, after drying, populated with larva of the mustard beetle (Phaedon cochleariae).

Another test relates to Lolium multiflorum. Put plainly: Herbicidal post-emergence action. The following applies: post-emergence method, 80 g/ha; about 3 weeks. The text has this:
(§1) • Seeds of monocotyledonous and dicotyledonous weed and crop plants are placed in sandy loam in wood fibre pots and covered with soil. The test compounds, formulated in the form of wettable powders (WP), are then, as aqueous suspension with a water application rate of 600 l/ha (converted), with 0.2% of wetting agent added, applied to the surface of the covering soil in various dosages. • After the treatment, the pots are placed in a greenhouse and kept under good growth conditions for the test plants. The visual assessment of the emergence damage on the test plants is carried out after a trial period of about 3 weeks by comparison with untreated controls (herbicidal effect in %: 100% effect=the plants have died, 0% effect=like control plants). • In addition to the compounds mentioned above, the following compounds, applied by the pre-emergence method at 320 g of a.i./ha, show an efficacy of 90% against Lolium multiflorum and Setaria viridis: I-1-a-1 • In addition to the compounds mentioned above, the following compounds, applied by the pre-emergence method at 320 g of a.i./ha, show an efficacy of 100% against Echinocloa crus-galli: I-a-2, I-b-1, I-b-2, I-c-2 2. Herbicidal Post-Emergence Action • Seeds of monocotyledonous and dicotyledonous weed and crop plants are placed in sandy loam in wood fibre pots, covered with soil and cultivated in a greenhouse under good growth conditions. 2-3 weeks after sowing, the test plants are treated at the one-leaf stage. The test compounds, formulated as wettable powders (WP), are, in various dosages at a water application rate of 600 l/ha (converted), with 0.2% of wetting agent added, sprayed onto the green parts of the plants. After the test plants have been kept in the greenhouse under optimum growth conditions for about 3 weeks, the effect of the preparations is rated visually in comparison to untreated controls (herbicidal effect in %: 100% effect=the plants have died, 0% effect=like control plants). • In addition to the compounds mentioned above, the following compounds, applied by the post-emergence method at 80 g/ha, show an efficacy of 90% against Echinocloa crus-galli and Lolium multiflorum: I-a-3, I-a-4, I-a-5.

The subject of test [2] is Echinocloa crus-galli. Put plainly: Herbicidal post-emergence action. The note with it: post-emergence method, 80 g/ha; about 3 weeks.
Source text: as §1

Test [3] concerns greenhouse red spidermite (Tetranychus urticae). Put plainly: Tetranychus test OP-resistant (TETRUR spray treatment). The following applies: application rate 100 g/ha, bean leaf discs, after 6 days. The method, then:
Tetranychus Test OP-Resistant (TETRUR Spray Treatment)
(§2) Solvents: 78.0 parts by weight of acetone
(§3) • 1.5 parts by weight of dimethylformamide Emulsifier: 0.5 part by weight of alkylaryl polyglycol ether
To produce a suitable preparation of active compound, 1 part by weight of active compound is mixed with the stated amounts of solvents and emulsifier, and the concentrate is diluted with emulsifier-containing water to the desired concentration. Discs of bean leaves (Phaseolus vulgaris) which are infested by all stages of the greenhouse red spidermite (Tetranychus urticae) are sprayed with an active compound preparation of the desired concentration.
After 6 days, the effect in % is determined. 100% means that all spidermites have been killed; 0% means that none of the spidermites have been killed.

For test [4], the system named is green peach aphid (Myzus persicae). Put plainly: Myzus test (MYZUPE spray treatment). The note with it: application rate 500 g/ha, Chinese cabbage leaf discs, after 6 days. The method, then: Myzus Test (MYZUPE Spray Treatment)
Solvents: 78 parts by weight of acetone
as §3
To produce a suitable preparation of active compound, 1 part by weight of active compound is mixed with the stated amounts of solvents and emulsifier, and the concentrate is diluted with emulsifier-containing water to the desired concentration. Discs of Chinese cabbage (Brassica pekinensis) which are infested by all stages of the green peach aphid (Myzus persicae) are sprayed with an active compound preparation of the desired concentration. After 6 days, the effect in % is determined. 100% means that all aphids have been killed; 0% means that none of the aphids have been killed.

Test [5] deals with caterpillars of the armyworm (Spodoptera frugiperda). Briefly: Spodoptera frugiperda test (SPODFR spray treatment). The note with it: application rate 500 g/ha, maize leaf discs, after 7 days. The method, then:
Spodoptera frugiperda Test (SPODFR Spray Treatment)
as §2, §3
To produce a suitable preparation of active compound, 1 part by weight of active compound is mixed with the stated amounts of solvents and emulsifier, and the concentrate is diluted with emulsifier-containing water to the desired concentration. Discs of maize leaves (Zea mays) are sprayed with an active compound preparation of the desired concentration and, after drying, populated with caterpillars of the armyworm (Spodoptera frugiperda).
After 7 days, the effect in % is determined. 100% means that all caterpillars have been killed; 0% means that none of the caterpillars have been killed.

The test system of test [6] is Echinocloa crus-galli. Put plainly: Herbicidal pre-emergence action. The note with it: pre-emergence method, 320 g of a.i./ha; about 3 weeks.
Source text: 1. Herbicidal Pre-Emergence Action
as §1

The test system of another test is Lucilia cuprina larva. Put plainly: Lucilia cuprina test (LUCICU). The note with it: application rate 100 ppm; treated horse meat; after 2 days. The method, then:
Lucilia cuprina Test (LUCICU)
Solvent: Dimethyl sulphoxide
To produce a suitable preparation of active compound, 10 mg of active compound are mixed with 0.5 ml of dimethyl sulphoxide and the concentrate is diluted with water to the desired concentration. Containers containing horse meat treated with the active compound preparation of the desired concentration are populated with about 20 Lucilia cuprina larva.
After 2 days, the kill in % is determined. 100% means that all larva have been killed; 0% means that none of the larva have been killed.

Take `CCON1CCC2(CC1)NC(=O)C(c1cc(-c3ccc(F)cc3)ccc1Cl)=C2O` [I-a-3]: the “efficacy (effect in %, beetle larva killed)” value in test [1] (application rate 500 g/ha) came out at 100%. For the same molecule, the “efficacy (herbicidal effect in %)” value in the test with Lolium multiflorum and with Echinocloa crus-galli [2] was 90% each time. In test [3], the “efficacy (effect in %, spidermites killed)” value was found to be 90%. Moreover, in test [4], the “efficacy (effect in %, aphids killed)” value is 100%. Further, the “efficacy (effect in %, caterpillars killed)” value in test [5] amounted to 83%.
`CON1CCC2(CC1)NC(=O)C(c1cc(-c3ccc(F)cc3)ccc1Cl)=C2O` [I-a-4]: the “efficacy (herbicidal effect in %)” value in the test on Lolium multiflorum and with Echinocloa crus-galli [2] was 90% each time. Moreover, the “efficacy (effect in %, spidermites killed)” value in test [3] amounted to 100%. Moreover, the “efficacy (effect in %, aphids killed)” value in test [4] was 100%. Also, the “efficacy (effect in %, caterpillars killed)” value in test [5] was 83%.
Turning to `CON1CCC2(CC1)NC(=O)C(c1cc(-c3ccc(F)cc3)ccc1C)=C2O` [I-a-5], the “efficacy (herbicidal effect in %)” value in the test on Lolium multiflorum and with Echinocloa crus-galli [2] was 90% each time. For the same molecule, the “efficacy (effect in %, spidermites killed)” value in test [3] is 90%. For the same molecule, the “efficacy (effect in %, aphids killed)” value in test [4] worked out at 100%. Also, in test [5], the “efficacy (effect in %, caterpillars killed)” value was found to be 100%.
On to `CCON1CCC2(CC1)NC(=O)C(c1cc(-c3ccc(F)cc3)ccc1C)=C2O` [I-a-6], for which the “efficacy (effect in %, beetle larva killed)” value in test [1] (application rate 100 g/ha) is recorded as 100%. Further, the “efficacy (effect in %, spidermites killed)” value in test [3] is on record as 90%. For the same molecule, the “efficacy (effect in %, aphids killed)” value in test [4] was found to be 100%. Besides, in test [5], the “efficacy (effect in %, caterpillars killed)” value is listed as 100%.
For `CCON1CCC2(CC1)NC(=O)C(c1c(OC)ccc(-c3ccc(F)cc3)c1Cl)=C2O` [I-a-7], in test [3], the “efficacy (effect in %, spidermites killed)” value turned out to be 90%. The “efficacy (effect in %, aphids killed)” value in test [4] amounted to 100%.
Regarding `CCc1ccc(-c2ccc(F)cc2)c(C)c1C1=C(O)C2(CCN(OC)CC2)NC1=O` [I-a-8], the “efficacy (effect in %, beetle larva killed)” value in test [1] (application rate 500 g/ha) amounted to 100%. Besides, the “efficacy (effect in %, spidermites killed)” value in test [3] was determined as 90%. In test [4], the “efficacy (effect in %, aphids killed)” value stood at 90%.
For the molecule `CCON1CCC2(CC1)NC(=O)C(c1c(CC)ccc(-c3ccc(F)cc3)c1C)=C2O` [I-a-9], in test [1] (application rate 500 g/ha), the “efficacy (effect in %, beetle larva killed)” value worked out at 100%. In test [3], the “efficacy (effect in %, spidermites killed)” value was found to be 90%. For the same molecule, the “efficacy (effect in %, aphids killed)” value in test [4] stood at 90%.
Regarding `COc1ccc(-c2ccc(F)cc2)c(Cl)c1C1=C(O)C2(CCN(OC)CC2)NC1=O` [I-a-10], the “efficacy (effect in %, spidermites killed)” value in test [3] is 90%. The “efficacy (effect in %, aphids killed)” value in test [4] stood at 100%.
As to `CCON1CCC2(CC1)NC(=O)C(c1c(C)ccc(-c3ccc(F)c(F)c3)c1C)=C2O` [I-a-11], the “efficacy (effect in %, spidermites killed)” value in test [3] was 100%. The “efficacy (effect in %, aphids killed)” value in test [4] turned out to be 100%.
In the case of `CCON1CCC2(CC1)NC(=O)C(c1c(C)ccc(-c3ccc(F)c(Cl)c3)c1C)=C2O` [I-a-12], in test [3], the “efficacy (effect in %, spidermites killed)” value is 100%. In test [4], the “efficacy (effect in %, aphids killed)” value is reported as 100%. Also, the “efficacy (effect in %, caterpillars killed)” value in test [5] was 83%.
`CON1CCC2(CC1)NC(=O)C(c1c(C)ccc(-c3ccc(F)c(F)c3)c1C)=C2O` [I-a-13]: in test [3], the “efficacy (effect in %, spidermites killed)” value worked out at 100%. For the same molecule, the “efficacy (effect in %, aphids killed)” value in test [4] was 100%.
`CCON1CCC2(CC1)NC(=O)C(c1c(C)ccc(-c3ccc(Cl)c(F)c3)c1C)=C2O` [I-a-14]: in test [3], the “efficacy (effect in %, spidermites killed)” value amounted to 90%. The “efficacy (effect in %, aphids killed)” value in test [4] is given as 100%. Moreover, the “efficacy (effect in %, caterpillars killed)” value in test [5] came to 100%.
As for `CON1CCC2(CC1)NC(=O)C(c1c(C)ccc(-c3ccc(Cl)c(F)c3)c1C)=C2O` [I-a-15], the “efficacy (effect in %, spidermites killed)” value in test [3] is on record as 100%. Moreover, the “efficacy (effect in %, aphids killed)” value in test [4] was determined as 100%. Further, the “efficacy (effect in %, caterpillars killed)” value in test [5] turned out to be 100%.
With `CON1CCC2(CC1)NC(=O)C(c1c(C)ccc(-c3ccc(F)cc3)c1C)=C2OC(=O)C(C)C` [I-b-1], in the test with Echinocloa crus-galli [6], the “efficacy (herbicidal effect in %)” value is 100%. Also, the “efficacy (effect in %, aphids killed)” value in test [4] was found to be 100%. For the same molecule, in test [5], the “efficacy (effect in %, caterpillars killed)” value was found to be 100%.
Consider `CCON1CCC2(CC1)NC(=O)C(c1c(C)ccc(-c3ccc(F)cc3)c1C)=C2OC(=O)C(C)C` [I-b-2], for which the “efficacy (herbicidal effect in %)” value in the test on Echinocloa crus-galli [6] is 100%. In test [4], the “efficacy (effect in %, aphids killed)” value is on record as 100%. The “efficacy (effect in %, caterpillars killed)” value in test [5] is 100%.
Take `CCOC(=O)OC1=C(c2c(C)ccc(-c3ccc(F)cc3)c2C)C(=O)NC12CCN(OC)CC2` [I-c-1]: in test [4], the “efficacy (effect in %, aphids killed)” value is listed as 100%. Also, the “efficacy (effect in %, caterpillars killed)” value in test [5] is given as 100%.
As to `CCOC(=O)OC1=C(c2c(C)ccc(-c3ccc(F)cc3)c2C)C(=O)NC12CCN(OCC)CC2` [I-c-2], in the test with Echinocloa crus-galli [6], the “efficacy (herbicidal effect in %)” value is on record as 100%. Moreover, the “efficacy (effect in %, aphids killed)” value in test [4] came out at 100%. The “efficacy (kill in %)” value in the test with Lucilia cuprina larva is 80%. Moreover, the “efficacy (effect in %, caterpillars killed)” value in test [5] turned out to be 100%.
With `CCOC(=O)OC1=C(c2c(OC)ccc(-c3ccc(F)cc3)c2Cl)C(=O)NC12CCN(OC)CC2` [I-c-3], the “efficacy (effect in %, spidermites killed)” value in test [3] came out at 90%.

The values are drawn from patent US9809542B2, “Spiroheterocyclically substituted tetramic acid derivatives” (BAYER INTELLECTUAL PROPERTY GMBH, priority 2010, dated 2017).
